# Data reported in US6737425B1, “N,N-substituted cyclic amine derivatives” (Eisai Co., Ltd., priority 1998, dated 2004).
# System: voltage-dependent calcium channels (cerebral cortex synaptosome)
# Assay: Measurement of voltage-dependent calcium channel activity by the use of a fluorescent pigment (fura 2)
# Format: cell-based
# Conditions: rat cerebral cortex synaptosome, fura 2, KCl stimulation, compound incubated 10 minutes
# Protocol: Measurement of Voltage-dependent Calcium Channel Activity by the use of a Fluorescent Pigment (fura 2)
# Cerebral cortexes were removed from cut rat brains and disrupted roughly with scissors. These were introduced into a homogenizer, homogenized in 0.3 M saccharose and centrifuged at 4° C. (1,500 g×10 min). The resulting supernatant was further centrifuged at 4° C. (10,000 g×20 min). The resulting precipitates were suspended in 0.3 M saccharose. The suspension was layered on 0.8 M saccharose and centrifuged (10,000 g×30 min.).
# 4 μM fura 2/AM (Dojin Ltd.) was suspended in solution A to prepare a loading solution. To the synaptosome solution prepared in the method described above was added an equal volume of the loading solution, and the mixture was incubated for 40 minutes at room temperature.
# As comparative and control compound, verapamil hydrochloride was used.
row,SMILES,IC50 [µM]
1,"CC(C)C(C#N)(CCCN1CCN(CCC(=O)Nc2ccc(F)cc2)CC1)c1ccccc1 (stereo not drawn) [Example 63, 1-[(4-Cyano-5-methyl-4-phenyl)hexyl]-4-[2-(4-fluorophenylaminocarbonyl)ethyl]piperazine]",7.4
2,"CC(C)C(C#N)(CCCN1CCN(CC(=O)Nc2ccc(F)cc2)CC1)c1ccccc1 (stereo not drawn) [Example 65, 1-[(4-Cyano-5-methyl-4-phenyl)hexyl]-4-[N-(4-fluorophenyl)carbamoylmethyl]piperazine]",> 16
3,"CC(C)C(C#N)(CCCN1CCN(CCNS(=O)(=O)c2ccc(F)cc2)CC1)c1ccccc1 (stereo not drawn) [Example 66, 1-[(4-Cyano-5-methyl-4-phenyl)hexyl]-4-[2-(4-fluorobenzenesulfonylamino)ethyl]piperazine]",8.2
4,"CC(C)C(C#N)(CCCN1CCN(CCS(=O)(=O)Nc2ccc(F)cc2)CC1)c1ccccc1 (stereo not drawn) [Example 67, 1-[(4-Cyano-5-methyl-4-phenyl)hexyl]-4-{2-[N-(4-fluorophenyl)sulfamoyl]ethyl}piperazine]",10
5,"CC(C)C(C#N)(CCCN1CCN(CCS(=O)(=O)N(C)c2ccc(F)cc2)CC1)c1ccccc1 (stereo not drawn) [Example 68, 1-[(4-Cyano-5-methyl-4-phenyl)hexyl]-4-{2-[N-(4-fluorophenyl)-N-methylsulfamoyl]ethyl}piperazine]",8.7
6,"CC(C)C(C#N)(CCCN1CCN(CCN(C)S(=O)(=O)c2ccc(F)cc2)CC1)c1ccccc1 (stereo not drawn) [Example 69, 1-[(4-cyano-5-methyl-4-phenyl)hexyl]-4-[2-(N-methyl-4-fluorobenzenesulfonylamino)ethyl]piperazine]",9.2
7,"CC(C)C(C#N)(CCCN1CCN(CCOC(=O)Sc2ccc(F)cc2)CC1)c1ccccc1 (stereo not drawn) [Example 70, 1-[(4-Cyano-5-methyl-4-phenyl)hexyl]-4-{2-[(4-fluorophenylthio)carbonyloxyl]ethyl}piperazine]",3.8
8,"CC(C)C(C#N)(CCCN1CCN(CCOc2ccccn2)CC1)c1ccccc1 (stereo not drawn) [Example 71, 1-[(4-Cyano-5-methyl-4-phenyl)hexyl]-4-[2-(2-pyridyloxy)ethyl]piperazine]",> 16
9,"CC(C)(O)C(C#N)(CCCN1CCN(CCOc2ccc(F)cc2)CC1)c1ccccc1 (stereo not drawn) [Example 81, 1-[(4-Cyano-5-hydroxy-5-methyl-4-phenyl)hexyl]-4-[2-(4-fluorophenoxyl)ethyl]piperazine]",> 16
10,"C=C(C)C(C#N)(CCCN1CCN(CCOc2ccc(F)cc2)CC1)c1ccccc1 (stereo not drawn) [Example 82, 1-[5-(4-Cyano-5-methyl-4-phenyl)hexenyl]-4-[2-(4-fluorophenoxyl)ethyl]piperazine]",5
11,"CC(C)C(C#N)(CCCN1CCN(CCOc2ccc(F)cc2)CC1)c1ccc(O)cc1 (stereo not drawn) [Example 83, 1-[4-Cyano-5-methyl-4-(4-hydroxyphenyl)hexyl]-4-[2-(4-fluorophenoxy)ethyl]piperazine]",13
12,"CC(C)C(C#N)(CCCN1CCN(CCOc2ccc(F)cc2O)CC1)c1ccccc1 (stereo not drawn) [Example 84, 1-[(4-Cyano-5-methyl-4-phenyl)hexyl]-4-[2-(2-hydroxy-4-fluorophenoxy)ethyl]piperazine]",6
13,"N#CC(F)(CCCN1CCN(CCOc2ccc(F)cc2)CC1)c1ccccc1 (stereo not drawn) [Example 85, 1-[(4-Cyano-4-fluoro-4-phenyl)butyl]-4-[2-(4-fluorophenoxy)ethyl]piperazine]",16
14,"CCOC(=O)COc1cc(F)ccc1OCCN1CCN(CCCC(C#N)(c2ccccc2)C(C)C)CC1 (stereo not drawn) [Example 86, 1-[(4-Cyano-5-methyl-4-phenyl)hexyl]-4-[2 (2-ethoxycarbonylmethoxy-4-fluorophenoxy)ethyl]piperazine]",4.3
15,"CC(C)C(C#N)(CCCN1CCN(CCOc2ccc(F)cc2OCCO)CC1)c1ccccc1 (stereo not drawn) [Example 87, 1-[(4-Cyano-5-methyl-4-phenyl)hexyl]-4-[2-(2-hydroxyethoxy-4-fluorophenoxy)ethyl]piperazine]",> 16
16,"COc1cc(F)ccc1OCCN1CCN(CCCC(C#N)(c2ccccc2)C(C)C)CC1 (stereo not drawn) [Example 88, 1-[(4-Cyano-5-methyl-4-phenyl)hexyl]-4-[2-(2-methoxy-4-fluorophenoxy)ethyl]piperazine]",4.9
17,"CC(C)N(CCN1CCN(CCCC(C#N)(c2ccccc2)C(C)C)CC1)c1ccccc1 (stereo not drawn) [Example 89, 1-[(4-Cyano-5-methyl-4-phenyl)hexyl]-4-[2-(N-isopropylanilino)ethyl]piperazine]",2.7
18,"CC(C)C(C#N)(CCCN1CCN(CCN(c2ccccc2)C2CCCCC2)CC1)c1ccccc1 (stereo not drawn) [Example 90, 1-[(4-Cyano-5-methyl-4-phenyl)hexyl]-4-[2-(N-cyclohexylanilino)ethyl]piperazine]",2.6
19,"CC(C)c1ccc(N(C)CCN2CCN(CCCC(C#N)(c3ccccc3)C(C)C)CC2)cc1 (stereo not drawn) [Example 91, 1-[(4-Cyano-5-methyl-4-phenyl)hexyl]-4-{2-[N-methyl(4-isopropylanilino)ethyl]}piperazine]",2.1
20,"CC(C)c1cccc(N(C)CCN2CCN(CCCC(C#N)(c3ccccc3)C(C)C)CC2)c1 (stereo not drawn) [Example 92, 1-[(4-Cyano-5-methyl-4-phenyl)hexyl]-4-{2-[N-methyl(3-Isopropylanilino)ethyl]}piperazine]",1.8

row,SMILES,IC50 [µM]
1,"CC(C)c1ccccc1N(C)CCN1CCN(CCCC(C#N)(c2ccccc2)C(C)C)CC1 (stereo not drawn) [Example 93, 1-[(4-Cyano-5-methyl-4-phenyl)hexyl]-4-{2-[N-methyl(2-Isopropylanilino)ethyl]}piperazine]",2.4
2,"CC(C)C(C#N)(CCCN1CCN(CCOc2ccc3c(c2)OCO3)CC1)c1ccccc1 (stereo not drawn) [Example 94, 1-[(4-Cyano-5-methyl-4-phenyl)hexyl]-4-{2-[3,4-(methylenedioxy)phenoxy]ethyl}piperazine]",6.1
3,"CC(C)C(C#N)(CCCN1CCN(CCOc2ccc3ncccc3c2)CC1)c1ccccc1 (stereo not drawn) [Example 95, 1-[(4-Cyano-5-methyl-4-phenyl)hexyl]-4-[2-(6-quinolyloxy)ethyl]piperazine]",11
4,"CC(C)C(C#N)(CCCN1CCN(CCOc2cccc3cnccc23)CC1)c1ccccc1 (stereo not drawn) [Example 96, 1-[(4-Cyano-5-methyl-4-phenyl)hexyl]-4-[2-(5-isoquinolyloxy)ethyl]piperazine]",5.4
5,"CC(CCC(C#N)(c1ccccc1)C(C)C)N1CCN(CCOc2ccc(F)cc2)CC1 (stereo not drawn) [Example 97, 1-[{2-(5-Cyano-6-methyl-5-phenyl)heptyl}]-4-[2-(4-fluorophenoxy)ethyl]piperazine]",3.9
6,"CCCC(CCC(C#N)(c1ccccc1)C(C)C)N1CCN(CCOc2ccc(F)cc2)CC1 (stereo not drawn) [Example 98, 1-{[4-(7-Cyano-8-methyl-7-phenyl)nonyl]}-4-[2-(4-fluorophenoxy)ethyl]piperazine]",> 16
7,"CC(C)C(C#N)(CCCN1CCN(CCOc2ccncc2)CC1)c1ccccc1 (stereo not drawn) [Example 99, 1-[(4-Cyano-5-methyl-4-phenyl)hexyl]-4-[2-(4-pyridyloxy)ethyl]piperazine]",> 16
8,"CC(C)C(C#N)(CCCN1CCN(CCOc2cccnc2)CC1)c1ccccc1 (stereo not drawn) [Example 100, 1-[(4-Cyano-5-methyl-4-phenyl)hexyl]-4-[2-(3-pyridyloxy)ethyl]piperazine]",> 16
9,"CC(C)C(C#N)(CCCN1CCN(CCOc2cccc3ncccc23)CC1)c1ccccc1 (stereo not drawn) [Example 101, 1-[(4-Cyano-5-methyl-4-phenyl)hexyl]-4-[2-(5-quinolyloxy)ethyl]piperazine]",9.2
10,"CC(C)C(C#N)(CCCN1CCN(CCOc2ccc(C(F)(F)F)cc2)CC1)c1ccccc1 (stereo not drawn) [Example 102, 1-[(4-Cyano-5-methyl-4-phenyl)hexyl]-4-[2-(4-trifluoromethylphenoxy)ethyl]piperazine]",2.7
11,"CC(C)C(C#N)(CCCN1CCN(CCOc2cccc3ccccc23)CC1)c1ccccc1 (stereo not drawn) [Example 103, 1-[(4-Cyano-5-methyl-4-phenyl)hexyl]-4-[2-(1-naphthyloxy)ethyl]piperazine]",2.5
12,"CCC(CN1CCN(CCCC(C#N)(c2ccccc2)C(C)C)CC1)Oc1ccc(F)cc1 (stereo not drawn) [Example 104, 1-[(4-Cyano-5-methyl-4-phenyl)hexyl]-4-[2-(4-fluorophenoxy)butyl]piperazine]",2.2
13,"CC(C)C(C#N)(CCCN1CCN(CCOc2ncnc3ccccc23)CC1)c1ccccc1 (stereo not drawn) [Example 105, 1-[(4-Cyano-5-methyl-4-phenyl)hexyl]-4-[2-(4-quinazolinyloxy)ethyl]piperazine]",> 16
14,"CC(C)C(C#N)(CCCN1CCN(CCOc2ccc(-c3cccnc3)cc2)CC1)c1ccccc1 (stereo not drawn) [Example 106, 1-[(4-Cyano-5-methyl-4-phenyl)hexyl]-4-{2-[4-(3-pyridyl)phenoxy]ethyl}piperazine]",7
15,"CC(C)C(C#N)(CCCN1CCN(CCOc2cccc(-c3cccnc3)c2)CC1)c1ccccc1 (stereo not drawn) [Example 107, 1-[(4-Cyano-5-methyl-4-phenyl)hexyl]-4-{2-[3-(3-pyridyl)phenoxy]ethyl}piperazine]",4.1
16,"CC(C)C(C#N)(CCCN1CCN(CCOc2ccc(Br)cc2)CC1)c1ccccc1 (stereo not drawn) [Example 108, 1-[(4-Cyano-5-methyl-4-phenyl)hexyl]-4-[2-(4-bromophenoxy)ethyl]piperazine]",3.3
17,"CC(C)C(C#N)(CCCN1CCN(CCOc2cccc(Br)c2)CC1)c1ccccc1 (stereo not drawn) [Example 109, 1-[(4-Cyano-5-methyl-4-phenyl)hexyl]-4-[2-(3-bromophenoxy)ethyl]piperazine]",3.3
18,"CC(C)C(C#N)(CCCN1CCN(CCOc2ccccc2Br)CC1)c1ccccc1 (stereo not drawn) [Example 110, 1-[(4-Cyano-5-methyl-4-phenyl)hexyl]-4-[2-(2-bromophenoxy)ethyl]piperazine]",3.5
19,"CC(C)C(C#N)(CCCN1CCN(CCOc2ccc(-n3ccnc3)cc2)CC1)c1ccccc1 (stereo not drawn) [Example 111, 1-[(4-Cyano-5-methyl-4-phenyl)hexyl]-4-{2-[4-(imidazol-1-yl)phenoxy]ethyl}piperazine]",> 16
